Assay results reported in the supplement of paper PMC11061612.

Columns and labels:
Palbociclib = compound: CC(=O)c1c(C)c2cnc(Nc3ccc(N4CCNCC4)cn3)nc2n(C2CCCC2)c1=O [Palbociclib]; details: max 10 µM
Procedure, shortened: (§1)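 Following 24 hours at 37°C and 5% CO2, cancer cell lines in 1536-well plates with 7.5 μl DMEM/F12 or RPMI and 10% FBS were dosed for 72 hours, final DMSO typically being 0.2%. CellTiter-Glo 2.0 luminescence, scaled between blank-well and DMSO-well means, gave the viability readout. Dose responses were fitted to a two-parameter logistic curve with a non-linear mixed effects model, and the single-agent IC50 was derived from this fit.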

Crizotinib = compound: C[C@@H](Oc1cc(-c2cnn(C3CCNCC3)c2)cnc1N)c1c(Cl)ccc(F)c1Cl [Crizotinib]; details: max 10 µM
Procedure, shortened: as §1

AZD8186 = compound: C[C@@H](Nc1cc(F)cc(F)c1)c1cc(C(=O)N(C)C)cc2c(=O)cc(N3CCOCC3)oc12 [AZD8186]; details: max 3 µM
Procedure, shortened: as §1

Trametinib = compound: CC(=O)Nc1cccc(-n2c(=O)n(C3CC3)c(=O)c3c(Nc4ccc(I)cc4F)n(C)c(=O)c(C)c32)c1 [Trametinib]; details: max 1 µM
Procedure, shortened: as §1

Doxorubicin = compound: COc1cccc2c1C(=O)c1c(O)c3c(c(O)c1C2=O)C[C@@](O)(C(=O)CO)C[C@@H]3O[C@H]1C[C@H](N)[C@H](O)[C@H](C)O1 [Doxorubicin]; details: max 1 µM
Procedure, shortened: as §1

Alisertib = compound: COc1cc(Nc2ncc3c(n2)-c2ccc(Cl)cc2C(c2c(F)cccc2OC)=NC3)ccc1C(=O)O [Alisertib]; details: max 10 µM
Procedure, shortened: as §1

AZD0156 = compound: CN(C)CCCOc1ccc(-c2ccc3ncc4c(c3c2)n(C2CCOCC2)c(=O)n4C)cn1 [AZD0156]; details: max 3 µM
Procedure, shortened: as §1

AZD5991 = compound: Cc1c2c(nn1C)CSCc1cc(n(C)n1)CSc1cc(c3ccccc3c1)OCCCc1c(C(=O)O)n(C)c3c-2c(Cl)ccc13 [AZD5991]; details: max 1 µM
Procedure, shortened: as §1

Taselisib = compound: Cc1nc(-c2cn3c(n2)-c2ccc(-c4cnn(C(C)(C)C(N)=O)c4)cc2OCC3)n(C(C)C)n1 [Taselisib]; details: max 10 µM
Procedure, shortened: as §1

AZD4320 = compound: CN(CC[C@H](CSC1=CC=CC=C1)NC2=C(C=C(C=C2)S(=O)(=O)NC(=O)C3=CC=C(C=C3)N4CCC(CC4)[C@H](C5=CC=CC=C5C6=CC=C(C=C6)Cl)O)S(=O)(=O)C(F)(F)F)CCO [AZD4320]; details: max 1 µM
Procedure, shortened: as §1

Olaparib = compound: O=C(c1cc(Cc2n[nH]c(=O)c3ccccc23)ccc1F)N1CCN(C(=O)C2CC2)CC1 [Olaparib]
Procedure, shortened: as §1

Dasatinib = compound: CC1=C(C(=CC=C1)Cl)NC(=O)C2=CN=C(S2)NC3=CC(=NC(=N3)C)N4CCN(CC4)CCO [Dasatinib]; details: max 2 µM
Procedure, shortened: as §1

SG3199 = compound: CC1=CN2[C@@H](C1)C=NC3=CC(=C(C=C3C2=O)OC)OCCCCCOC4=C(C=C5C(=C4)N=C[C@@H]6CC(=CN6C5=O)C)OC [SG3199]; details: max 0.001 µM
Procedure, shortened: as §1

Capivasertib = compound: C1CN(CCC1(C(=O)N[C@@H](CCO)C2=CC=C(C=C2)Cl)N)C3=NC=NC4=C3C=CN4 [Capivasertib]; details: max 10 µM
Procedure, shortened: as §1

AZD6738 = compound: C[C@@H]1COCCN1C2=NC(=NC(=C2)C3(CC3)[S@](=N)(=O)C)C4=C5C=CNC5=NC=C4 [AZD6738]; details: max 10 µM
Procedure, shortened: as §1

Gefitinib = compound: COc1cc2ncnc(Nc3ccc(F)c(Cl)c3)c2cc1OCCCN1CCOCC1 [Gefitinib]; details: max 10 µM
Procedure, shortened: as §1

AZD2811 = compound: CCN(CCO)CCCOc1ccc2c(Nc3cc(CC(=O)Nc4cccc(F)c4)[nH]n3)ncnc2c1 [AZD2811]; details: max 1 µM
Procedure, shortened: as §1

Selumetinib = compound: Cn1cnc2c(F)c(Nc3ccc(Br)cc3Cl)c(C(=O)NOCCO)cc21 [Selumetinib]; details: max 10 µM
Procedure, shortened: as §1

Savolitinib = compound: C[C@@H](c1ccc2nccn2c1)n1nnc2ncc(-c3cnn(C)c3)nc21 [Savolitinib]; details: max 1 µM
Procedure, shortened: as §1

AZD1390 = compound: CC(C)n1c(=O)n(C)c2cnc3cc(F)c(-c4ccc(OCCCN5CCCCC5)nc4)cc3c21 [AZD1390]; details: max 0.3 µM
Procedure, shortened: as §1

Prexasertib = compound: COc1cccc(OCCCN)c1-c1cc(Nc2cnc(C#N)cn2)n[nH]1 [Prexasertib]; details: max 1 µM
Procedure, shortened: as §1

AZD5153 = compound: COc1nnc2ccc(N3CCC(c4ccc(OCCN5CCN(C)C(=O)[C@H]5C)cc4)CC3)nn12 [AZD5153]; details: max 1 µM
Procedure, shortened: as §1

AZD7648 = compound: Cc1cc2ncnn2cc1Nc1ncc2c(n1)n(C1CCOCC1)c(=O)n2C [AZD7648]; details: max 10 µM
Procedure, shortened: as §1

Venetoclax = compound: CC1(C)CCC(CN2CCN(c3ccc(C(=O)NS(=O)(=O)c4ccc(NCC5CCOCC5)c([N+](=O)[O-])c4)c(Oc4cnc5[nH]ccc5c4)c3)CC2)=C(c2ccc(Cl)cc2)C1 [Venetoclax]; details: max 1 µM
Procedure, shortened: as §1

SN-38 = compound: CCc1c2c(nc3ccc(O)cc13)-c1cc3c(c(=O)n1C2)COC(=O)[C@]3(O)CC [SN-38]; details: max 0.3 µM
Procedure, shortened: as §1

Lapatinib = compound: CS(=O)(=O)CCNCc1ccc(-c2ccc3ncnc(Nc4ccc(OCc5cccc(F)c5)c(Cl)c4)c3c2)o1 [Lapatinib]; details: max 10 µM
Procedure, shortened: as §1

AZD1775 = compound: C=CCn1c(=O)c2cnc(Nc3ccc(N4CCN(C)CC4)cc3)nc2n1-c1cccc(C(C)(C)O)n1 [AZD1775]; details: max 3 µM
Procedure, shortened: as §1

Cell Line | IC50, cell viability 72 h (Palbociclib) [nM] | IC50, cell viability 72 h (Crizotinib) [nM] | IC50, cell viability 72 h (AZD8186) [nM] | IC50, cell viability 72 h (Trametinib) [nM] | IC50, cell viability 72 h (Doxorubicin) [nM] | IC50, cell viability 72 h (Alisertib) [nM] | IC50, cell viability 72 h (AZD0156) [nM] | IC50, cell viability 72 h (AZD5991) [nM] | IC50, cell viability 72 h (Taselisib) [nM] | IC50, cell viability 72 h (AZD4320) [nM] | IC50, cell viability 72 h (Olaparib; max 10 µM) [nM] | IC50, cell viability 72 h (Dasatinib) [nM] | IC50, cell viability 72 h (SG3199) [nM] | IC50, cell viability 72 h (Capivasertib) [nM] | IC50, cell viability 72 h (AZD6738) [nM] | IC50, cell viability 72 h (Gefitinib) [nM] | IC50, cell viability 72 h (AZD2811) [nM] | IC50, cell viability 72 h (Selumetinib) [nM] | IC50, cell viability 72 h (Savolitinib) [nM] | IC50, cell viability 72 h (AZD1390) [nM] | IC50, cell viability 72 h (Prexasertib) [nM] | IC50, cell viability 72 h (AZD5153) [nM] | IC50, cell viability 72 h (AZD7648) [nM] | IC50, cell viability 72 h (Venetoclax) [nM] | IC50, cell viability 72 h (SN-38) [nM] | IC50, cell viability 72 h (Lapatinib) [nM] | IC50, cell viability 72 h (AZD1775) [nM] | IC50, cell viability 72 h (Olaparib; max 3 µM) [nM]
GOTO (Neuroblastoma) | 7010 | 1640 | > 3000 | > 1000 | 193 | 272 | > 3000 | 398 | 4550 | > 1000 | > 10000 | > 2000 | > 1 | > 10000 | 592 | > 10000 | 332 | > 10000 | > 1000 | > 300 | 11.8 | 91.7 | > 10000 | > 1000 | 3.91 | 6070 | 650 | 
HC-1 (Other Blood Carcinomas) | 9650 | > 10000 | > 3000 | > 1000 | 151 | 752 | > 3000 | > 1000 | 2640 | 793 | > 10000 | 1680 | > 1 | > 10000 | 4320 | > 10000 | 884 | > 10000 | > 1000 | > 300 | 6.96 | 858 | > 10000 | > 1000 | 4.53 | > 10000 | 187 | 
HuP-T3 (Pancreatic Carcinoma) | > 10000 | > 10000 | > 3000 | 567 | > 1000 | > 10000 | > 3000 | > 1000 | > 10000 | > 1000 | > 10000 | 791 | > 1 | > 10000 | > 10000 | > 10000 | > 1000 | > 10000 | > 1000 | > 300 | 166 | > 1000 | > 10000 | > 1000 | 235 | > 10000 | 1610 | 
IMR-5 (Neuroblastoma) | 6630 | 2210 | > 3000 | > 1000 | 64.9 | 18.3 | > 3000 | 107 | > 10000 | 546 | > 10000 | > 2000 | > 1 | > 10000 | 2190 | > 10000 | 18.2 | > 10000 | > 1000 | > 300 | 13.6 | 69.6 | > 10000 | > 1000 | 1.9 | > 10000 | 498 | 
KLE (Endometrial Carcinoma) | > 10000 | > 10000 | > 3000 | > 1000 | > 1000 | 9070 | > 3000 | > 1000 | 2430 | > 1000 | > 10000 | 186 | > 1 | > 10000 | > 10000 | > 10000 | > 1000 | > 10000 | > 1000 | > 300 | > 1000 | 315 | > 10000 | > 1000 | > 300 | > 10000 | 1800 | 
KP-2 (Pancreatic Carcinoma) | > 10000 | > 10000 | > 3000 | 778 | > 1000 | > 10000 | > 3000 | > 1000 | > 10000 | 238 | > 10000 | > 2000 | > 1 | > 10000 | > 10000 | > 10000 | > 1000 | 8020 | > 1000 | > 300 | 867 | > 1000 | > 10000 | > 1000 | > 300 | > 10000 | > 3000 | 
NH-12 (Neuroblastoma) | > 10000 | 3020 | > 3000 | 105 | 157 | 68.8 | > 3000 | > 1000 | 1250 | 79.3 | > 10000 | > 2000 | > 1 | > 10000 | 2370 | > 10000 | 509 | > 10000 | > 1000 | > 300 | 17.3 | 625 | > 10000 | 576 | 4.09 | > 10000 |  | 
U-87-MG (Glioblastoma) | > 10000 | > 10000 | 2450 | > 1000 |  | > 10000 | > 3000 | > 1000 | 2450 | > 1000 |  | > 2000 |  | > 10000 | > 10000 | > 10000 | > 1000 | > 10000 | > 1000 | > 300 | > 1000 | > 1000 | > 10000 | > 1000 | 40.5 | > 10000 | > 3000 | > 3000
